From patent US20240025875A1, “A COMPOUND AS A THYROID HORMONE BETA RECEPTOR AGONIST AND USE THEREOF” (SUNSHINE LAKE PHARMA CO., LTD., priority 2020, published 2024)

Columns and labels:
[1] = target: T1, TRα (Homo sapiens, UniProt P10827); test: LanthaScreen TR-FRET Thyroid Receptor alfa Coactivator Assay (in vitro binding activity); details: TR alfa-LBD
T1 construct: 5 μL of 4×TR beta/alfa-LBD; purchased Invitrogen PV4687
Method in brief: (§1)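 TR-FRET coactivator recruitment used GST-tagged TRα or TRβ ligand-binding domain with fluorescein-SRC2-2 peptide and Tb anti-GST antibody (0.4 μM and 8 nM in the added mix). Compound was run as 10-point 3-fold dilutions (2% DMSO solution) for 1 h at room temperature in the dark. EC50 came from the 520/495 nm emission ratio.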

[2] = Pharmacokinetic determination in SD rats (i.v. and i.g.); format: in vivo; details: for AUC(0-inf) / AUC(0-t) / Cmax / clearance / half-life / Vd: male, Sprague-Dawley (SD), rat, plasma; for Vd: read-out: VSS
Source text: Test purposes: The following method was used to determine the pharmacokinetics of the compound of the present invention.
Test Materials: • Experimental reagents and test samples used: Propranolol (internal standard), methanol, ammonium acetate, K2EDTA (potassium ethylenediaminetetraacetic acid), formic acid, acetonitrile MTBE (methyl tert-butyl ether). KolliphorHS15 (macrogol 12 hydroxystearate), DMSO (dimethyl sulfoxide) are commercially available • SD rats: male, 180-220 g, 7-8 weeks old, purchased from Human Slack Experimental Animal Co., Ltd.
Each test sample prepared was completely dissolved in a mixture of 5% DMSO+5% KolliphorHS 15+90% Saline according solubility property thereof.
Samples were processed by liquid-liquid extraction, chromatographically separated, quantitatively analyzed by multiple reaction ion monitoring (MRM) on a triple quadrupole tandem mass spectrometer, and the concentration of the results was calculated by instrument quantitative software.
30 μL of plasma sample was precisely pipetted, added with 250 μL of internal standard, and vortexed to mix thoroughly. Plasma samples was extracted once with 1 mL of MTBE, centrifuged at 13,000 rpm for 2 min at 4° C. 800 μL of the supernatant was sucked out, evaporated to dryness in a 96-well nitrogen blower, and the residue was reconstituted with 150 μL of methanol/water (v/v=50/50), vortexed to mix, and injected with an injection volume of 8 μL.
LC/MS/MS method was used to determine the content of the test compound in rat plasma after administration of different compounds.
Pharmacokinetic parameters were calculated using a noncompartmental method by WinNonLin 6.1 software.

[3] = target: T2, TRβ (Homo sapiens, UniProt P10828); test: LanthaScreen TR-FRET Thyroid Receptor beta Coactivator Assay (in vitro binding activity); details: TR beta-LBD
T2 construct: 5 μL of 4×TR beta/alfa-LBD; purchased Invitrogen PV4686
T2 sequence (P10828 217-461 limits assumed): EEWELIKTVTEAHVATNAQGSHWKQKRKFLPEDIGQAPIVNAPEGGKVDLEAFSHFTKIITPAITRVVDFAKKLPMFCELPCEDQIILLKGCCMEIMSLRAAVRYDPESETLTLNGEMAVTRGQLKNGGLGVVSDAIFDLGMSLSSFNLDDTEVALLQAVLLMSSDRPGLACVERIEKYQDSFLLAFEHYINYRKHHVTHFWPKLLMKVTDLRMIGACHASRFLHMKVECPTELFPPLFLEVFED
Method in brief: as §1

T1 sequence (P10827 163-410 isoform P10827-2 limits assumed, other chains not shown): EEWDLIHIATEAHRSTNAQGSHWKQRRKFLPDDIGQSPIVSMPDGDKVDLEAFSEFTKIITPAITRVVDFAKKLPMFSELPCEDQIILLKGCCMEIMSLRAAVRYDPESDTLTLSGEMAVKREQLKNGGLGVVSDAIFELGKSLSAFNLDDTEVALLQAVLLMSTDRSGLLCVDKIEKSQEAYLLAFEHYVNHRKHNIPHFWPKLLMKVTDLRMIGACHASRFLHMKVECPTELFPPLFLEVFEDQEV

## O=C1c2ccc(Oc3c(Cl)cc(-n4ncc(=O)[nH]c4=O)cc3Cl)cc2CCN1Cc1ccc(Cl)cc1 [Example 37, 2-(3,5-dichloro-4-((2-(4-chlorobenzyl)-1-oxo-1,2,3,4-tetrahydroisoquinolin-6-yl)oxy)phenyl)-1,2,4-triazine-3,5(2H,4H)-dione]
[1]
  EC50: > 100 µM
[2]; ig, 5 mg/kg
  F: 116.3%
[2]; iv, 1 mg/kg
  AUC(0-inf): 21100 ng·h/mL
  AUC(0-t): 20900 ng·h/mL
  Cmax: 4200 ng/mL
  clearance: 0.789 mL/min/kg
  half-life: 3.61 h
  Vd: 0.212 L/kg
[2]; po, ig, 5 mg/kg
  AUC(0-inf): 122000 ng·h/mL
  AUC(0-t): 121000 ng·h/mL
  Cmax: 12300 ng/mL
  half-life: 3.5 h
[3]
  EC50: 0.043 µM

## O=C1c2ccc(Oc3c(Cl)cc(-n4ncc(=O)[nH]c4=O)cc3Cl)cc2CCN1Cc1cccc(OC(F)(F)F)c1 [Example 43, 2-(3,5-dichloro-4-((1-oxo-2-(3-(trifluoromethoxy)benzyl)-1,2,3,4-tetrahydroisoquinolin-6-yl)oxy)phenyl)-1,2,4-triazine-3,5(2H,4H)-dione]
[1]
  EC50: > 100 µM
[2]; ig, 5 mg/kg
  F: 68.4%
[2]; iv, 1 mg/kg
  AUC(0-inf): 47700 ng·h/mL
  AUC(0-t): 39800 ng·h/mL
  Cmax: 3410 ng/mL
  clearance: 0.349 mL/min/kg
  half-life: 9.52 h
  Vd: 0.26 L/kg
[2]; po, ig, 5 mg/kg
  AUC(0-inf): 212000 ng·h/mL
  AUC(0-t): 134000 ng·h/mL
  Cmax: 8120 ng/mL
  half-life: 15.7 h
[3]
  EC50: 0.031 µM

## O=C1c2ccc(Oc3c(Cl)cc(-n4ncc(=O)[nH]c4=O)cc3Cl)cc2CCN1c1cccnc1 [Example 49, 2-(3,5-dichloro-4-((1-oxo-2-(pyridin-3-yl)-1,2,3,4-tetrahydroisoquinolin-6-yl)oxy)phenyl)-1,2,4-triazine-3,5(2H,4H)-dione]
[1]
  EC50: > 100 µM
[2]; ig, 5 mg/kg
  F: 138.3%
[2]; iv, 1 mg/kg
  AUC(0-inf): 3730 ng·h/mL
  AUC(0-t): 3580 ng·h/mL
  Cmax: 5300 ng/mL
  clearance: 4.46 mL/min/kg
  half-life: 1.14 h
  Vd: 0.306 L/kg
[2]; po, ig, 5 mg/kg
  AUC(0-inf): 25800 ng·h/mL
  AUC(0-t): 25300 ng·h/mL
  Cmax: 9680 ng/mL
  half-life: 3.63 h
[3]
  EC50: 0.107 µM
